# Measurements published in patent publication US12466840B2, “Small molecule inhibitors of KRAS proteins” (Merck Sharp & Dohme LLC, priority 2023, dated 2025).
# How the values were obtained:
# Assay type in all cases: in vivo
# [1] = Rat IV/PO pharmacokinetic studies; conditions: for F % / bioavailability: oral bioavailability, PO 2 mg/kg vs. IV 1 mg/kg; for CLp / MRT / Vd / clearance / bioavailability: plasma; for CLp / MRT / Vd / clearance: IV 1 mg/kg; for clearance: read-out: CLp
# Procedure: Procedure for Rat IV/PO Pharmacokinetic Studies
# Plasma pharmacokinetic parameters for clearance, volume of distribution, half-life and oral bioavailability were determined in rats from oral administration and IV administration studies. 4 male rats, typically weighing 225-260 g, were fasted overnight prior to dosing. IV formulation was administered to 2 rats via pre-cannulated jugular vein, and oral dosing was administered to 2 rats via oral gavage. Blood was collected by pre-cannulated artery, typically at predose, 2, 8, 15, 30 min, 1, 2, 4, 6, and 8 hr postdose for IV, and at predose, 15, 30 min, 1, 2, 4, 6, 8 h for oral dosing. Samples were collected in K2EDTA tubes, stored on ice, and centrifuged. Plasma was transferred to a micro titer plate and stored at −70° C. until analysis. Plasma samples were extracted using protein precipitation and analyzed by liquid chromatography separation followed by mass spec detection (LC-MS/MS), using a standard curve for each compound. Plasma pharmacokinetic parameters were calculated for IV and oral dosing data by non-compartmental methods. Oral bioavailability was determined as the ratio of the dose-normalized plasma area under the curve (AUC) following oral dosing vs. IV dosing.
# [2] = Dog IV/PO pharmacokinetic studies; conditions: for F % / bioavailability: oral bioavailability, PO 0.5 mg/kg vs. IV; for CLp / MRT / Vd / clearance / bioavailability: plasma; for CLp / MRT / Vd / clearance: IV 0.25 mg/kg (Ex-2 0.05 mg/kg); for clearance: read-out: CLp
# Procedure: Procedure for Dog IV/PO Pharmacokinetic Studies
# Plasma pharmacokinetic parameters for clearance, volume of distribution, half-life, mean residence time (MRT) and oral bioavailability were determined in dogs from oral administration and IV administration studies. 4 male dogs, typically weighing 8-12 kg, were fasted overnight prior to dosing. IV formulation was administered to 2 dogs via the saphenous or cephalic vein, and oral dosing was administered to 2 dogs via oral gavage. Blood was collected by the cephalic or jugular vein, typically at predose, 2, 8, 15, 30 min, 1, 2, 4, 6, 8 and 24 h postdose for IV, and at predose, 15, 30 min, 1, 2, 4, 6, 8, and 24 hr for oral dosing. Samples were collected in K2EDTA tubes, stored on ice, and centrifuged. Plasma was transferred to a micro titer plate and stored at −70° C. until analysis. Plasma samples were extracted using protein precipitation and analyzed by liquid chromatography separation followed by mass spec detection (LC-MS/MS), using a standard curve for each compound. Plasma pharmacokinetic parameters were calculated for IV and oral dosing data by non-compartmental methods. Oral bioavailability was determined as the ratio of the dose-normalized plasma area under the curve (AUC) following oral dosing vs. IV dosing.
# [3] = Dog IV cassette pharmacokinetic studies; conditions: plasma, IV cassette 0.05 mg/kg
# Procedure: Procedure for Dog IV Cassette Pharmacokinetic Studies
# Plasma pharmacokinetic parameters for clearance, volume of distribution, half-life, and mean residence time (MRT) were determined in dogs from IV cassette administration studies. 2 male dogs, typically weighing 8-12 kg, were fasted overnight prior to dosing. IV formulation was administered to 2 dogs via the saphenous or cephalic vein. Blood was collected by the cephalic or jugular vein, typically at predose, 2, 8, 15, 30 min, 1, 2, 4, 6, 8 and 24 h postdose. Samples were collected in K2EDTA tubes, stored on ice, and centrifuged. Plasma was transferred to a micro titer plate and stored at −70° C. until analysis. Plasma samples were extracted using protein precipitation and analyzed by liquid chromatography separation followed by mass spec detection (LC-MS/MS), using a standard curve for each compound. Plasma pharmacokinetic parameters were calculated by non-compartmental methods.
SMILES,F % [1] [%],CLp [1] [mL/min/kg],MRT [1] [h],Vd [1] [L/kg],F % [2] [%],CLp [2] [mL/min/kg],MRT [2] [h],Vd [2] [L/kg],clearance ([1]; male) [mL/min/kg],"MRT ([1]; male, read-out: MRT) [h]","Vd ([1]; male, read-out: Vd) [L/kg]",bioavailability ([1]; male) [%],clearance ([2]; male) [mL/min/kg],"MRT ([2]; male, read-out: MRT) [h]","Vd ([2]; male, read-out: Vd) [L/kg]",bioavailability ([2]; male) [%],CLp [3] [mL/min/kg],MRT [3] [h],Vd [3] [L/kg]
"F/C=C1/CN2CCC[C@@]2(COc2nc3c4c(nc(-c5c(C6CC6)c(Cl)cc6[nH]ncc56)c(F)c4n2)OC[C@@H]2COCCCN32)C1 [Ex-1, (8aS)-5-(6-chloro-5-cyclopropyl-1H-indazol-4-yl)-4-fluoro-2-(((S,Z)-2-(fluoromethylene)tetrahydro-1H-pyrrolizin-7a(5H)-yl)methoxy)-8a,9,12,13-tetrahydro-8H,11H-7,10-dioxa-1,3,6,13a-tetraazanaphtho[1,8-ab]heptalene]",11,24,1.4,2.0,17,5.0,2.2,0.65,–,–,–,–,–,–,–,–,–,–,–
"CCc1c(F)ccc2cc3[nH]ncc3c(-c3nc4c5c(nc(OC[C@@]67CCCN6C[C@H](F)C7)nc5c3F)N3CCCOC[C@H]3CO4)c12 [Ex-2, (8aS)-5-(5-ethyl-6-fluoro-1H-benzo[f]indazol-4-yl)-4-fluoro-2-(((2R,7aS)-2-fluorotetrahydro-1H-pyrrolizin-7a(5H)-yl)methoxy)-8a,9,12,13-tetrahydro-8H,11H-7,10-dioxa-1,3,6,13a-tetraazanaphtho[1,8-ab]heptalene]",10,40,2.5,6.1,29,18,2.4,2.6,–,–,–,–,–,–,–,–,–,–,–
"Fc1c(-c2c(C3CC3)c(Cl)cc3[nH]ncc23)nc2c3c(nc(OC[C@@]45CCCN4C[C@H](F)C5)nc13)N1CCCOC[C@H]1CO2 [Ex-3, (8aS)-5-(6-chloro-5-cyclopropyl-1H-indazol-4-yl)-4-fluoro-2-(((2R,7aS)-2-fluorotetrahydro-1H-pyrrolizin-7a(5H)-yl)methoxy)-8a,9,12,13-tetrahydro-8H,11H-7,10-dioxa-1,3,6,13a-tetraazanaphtho[1,8-ab]heptalene]",–,–,–,–,–,–,–,–,40,1.7,4,7.5,10,3.6,2.2,15,–,–,–
"CCc1c(F)ccc2cc3[nH]nc(C)c3c(-c3nc4c5c(nc(OC[C@@]67CCCN6C[C@H](F)C7)nc5c3F)N3CCCOC[C@H]3CO4)c12 [Ex-6, (8aS)-5-(5-ethyl-6-fluoro-3-methyl-1H-benzo[f]indazol-4-yl)-4-fluoro-2-(((2R,7aS)-2-fluorotetrahydro-1H-pyrrolizin-7a(5H)-yl)methoxy)-8a,9,12,13-tetrahydro-8H,11H-7,10-dioxa-1,3,6,13a-tetraazanaphtho[1,8-ab]heptalene]",–,–,–,–,–,–,–,–,36,2.4,5.1,18,8,7.8,3.7,59,–,–,–
"CCc1c(F)ccc2cc3[nH]nc(C)c3c(-c3nc4c5c(nc(OC[C@@]67CCCN6C/C(=C\F)C7)nc5c3F)N3CCCOC[C@H]3CO4)c12 [Ex-7, (8aS)-5-(5-ethyl-6-fluoro-3-methyl-1H-benzo[f]indazol-4-yl)-4-fluoro-2-(((S,Z)-2-(fluoromethylene)tetrahydro-1H-pyrrolizin-7a(5H)-yl)methoxy)-8a,9,12,13-tetrahydro-8H,11H-7,10-dioxa-1,3,6,13a-tetraazanaphtho[1,8-ab]heptalene]",15,35,1.9,4.0,–,–,–,–,–,–,–,–,–,–,–,–,7.7,3.1,1.4
